{
  "source": "paper PMC8218751",
  "about": "“Visualizing Borrelia burgdorferi Infection Using a Small-Molecule Imaging Probe” (Journal of Clinical Microbiology, 2021)",
  "key": {"B. burgdorferi HtpG": {"target": "T1, B. burgdorferi HtpG (Borreliella burgdorferi, UniProt P42555)", "T1 construct": "His6 (N); made in house; host or cells: E. coli BL21(DE3)", "T1 sequence (P42555 whole entry)": "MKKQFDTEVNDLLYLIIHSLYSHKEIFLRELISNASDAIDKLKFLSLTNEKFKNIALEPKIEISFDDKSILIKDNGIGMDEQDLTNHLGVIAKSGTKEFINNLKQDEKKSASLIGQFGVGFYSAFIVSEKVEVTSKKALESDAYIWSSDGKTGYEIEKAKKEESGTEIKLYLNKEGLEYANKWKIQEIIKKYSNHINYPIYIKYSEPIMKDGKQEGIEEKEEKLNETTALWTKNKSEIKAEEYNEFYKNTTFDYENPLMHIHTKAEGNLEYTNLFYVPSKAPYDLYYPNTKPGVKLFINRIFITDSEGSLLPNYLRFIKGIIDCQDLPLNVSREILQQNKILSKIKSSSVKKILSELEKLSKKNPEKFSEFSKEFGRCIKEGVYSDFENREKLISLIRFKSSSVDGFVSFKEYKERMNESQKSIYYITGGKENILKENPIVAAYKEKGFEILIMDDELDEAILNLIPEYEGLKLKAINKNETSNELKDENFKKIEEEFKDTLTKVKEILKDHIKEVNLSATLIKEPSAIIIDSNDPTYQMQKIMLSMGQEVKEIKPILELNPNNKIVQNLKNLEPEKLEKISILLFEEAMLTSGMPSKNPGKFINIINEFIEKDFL", "test": "biochemical", "format": "binding, Borrelia burgdorferi", "protocol": "Escherichia coli (strain BL21/DE3) genomic DNA was isolated from a lab culture generated from the cloning/expression bacterium (ThermoFisher catalog no. EC0114) by overnight proteinase K digestion at 56°C, high-salt clarification, and ethanol precipitation. […] Human Hsp90-alpha sequences were derived from cDNA generated from total mRNA of the human breast epithelial line, MCF10A. HtpG DNA sequences were PCR cloned from these DNAs using primers designed to allow in-frame cloning with GFP in the isopropyl-β-D-thiogalactopyranoside (IPTG)-inducible bacterial expression vector. […] Fusion protein cloning was done using the ligation-independent cloning procedure via single-nucleotide T4 DNA polymerase treatment of vector and purified PCR products followed by annealing of complementary single-strand ends before transformation into DH5 E. coli. […] Fusion protein synthesis was induced by incubation with 1 mM IPTG or autoinduction ([17]).\nγ-linked ATP Sepharose matrix was generated as described previously by the Haystead lab ([18]). […] The clarified lysate was added to a column containing ATP-bound Sepharose. The column was washed with low-salt buffer (150 mM NaCl, 25 mM HEPES, pH 7.4, 1 mM dithiothreitol [DTT], and 60 mM MgCl2), followed by high-salt buffer (1 M NaCl, 25 mM HEPES, pH 7.4, 1 mM DTT, 0.1% IGEPAL, and 60 mM MgCl2) and once again low-salt buffer to remove unbound protein. Next, the resin with bound proteins (50 μl) was transferred to a 0.2-μm polyvinylidene fluoride filter 96-well plate (Corning) sitting on top of a black flat-bottomed 96-well catch plate (Corning). […] The eluted proteins were measured in a fluorescent plate reader to detect the GFP.\nSubtle single amino acid differences are present within the catalytic clefts of these proteins, especially between residues that contact the nucleotide. […] We therefore reasoned that these differences may be sufficient to design small molecules that can similarly discriminate HtpG of stealth organisms. To test this hypothesis, we utilized a fluorescent-linked enzyme chemoproteomic strategy (FLECS) assay to test known Hsp90 inhibitors ([18]) for binding to various HtpG constructs. First, we cloned and expressed in E. coli recombinant N-terminal GFP-fusion forms of HtpG from B. burgdorferi, E. coli, and Treponema denticola, the oral spirochete, as well as human Hsp90. We then incubated lysate after protein expression with an ATP Sepharose resin to enable binding. In this assay, ATP is tethered to Sepharose beads via its γ-phosphate, enabling the nucleotide to bind to ATP binding proteins such as Hsp90 and HtpG, but is nonhydrolyzable ([24]). After proteins are bound to the ATP Sepharose resin, small molecules with affinity for the ATP binding site will elute the GFP-fusion protein, which can readily be detected and quantified on a plate fluorometer.\nThese compounds were selected for testing based on their known binding to human Hsp90 ([25], [26])."}, "B. burgdorferi [1]": {"test_system": "B. burgdorferi", "test": "B. burgdorferi live bacterial imaging", "format": "cell-based, Borrelia burgdorferi", "protocol": "B. burgdorferi strain B31 was obtained from ATCC (ATCC catalog number ATCC-35210). Cultures were grown in Barbour-Stoenner-Kelly medium (BSK-II) created using the Barbour protocol ([19]) without gelatin and supplemented with 6 % rabbit serum (Pel-Freez catalog number 31128-5) at 34°C. Low-passage-number cultures (less than 4) were utilized. Later-stage morphological variants were obtained by increasing culture time to approximately 8 days to achieve a density of ∼10^8/ml counted under dark-field microscopy.\n[…] germ agglutinin (WGA) conjugated with Alexa 488 at 10 μg per ml (Biotium catalog number 29022), and cells were then washed with fresh medium and mounted with Prolong Gold with 4′,6-diamidino-2-phenylindole (DAPI). Samples were imaged on a Zeiss Axio Imager upright microscope, using 63× oil objective, and visible light for differential […] contrast (DIC) imaging and excitation at 405, 488, or 633 nm for detection of DAPI, fluorescein isothiocyanate (FITC), or HS-198, respectively."}, "B. burgdorferi [2]": {"test_system": "B. burgdorferi", "test": "In vivo mouse model of B. burgdorferi infection, imaging of tissue sections", "design": "species or system mice", "conditions": "25 nmol via tail vein, 3 weeks after infection, 6 h postinjection; ear, tibiotarsal joint, spleen", "protocol": "Ten-micrometer sections of frozen tissues were incubated with WGA (Biotium catalog number 29077) for 1 h in PBS. Tissues were washed and fixed with 3:1 methanol to acetic acid. Slides were incubated with FITC-conjugated B. burgdorferi polyclonal antibody (ThermoFisher, catalog number PA1-73005) for 1 h at room temperature. Noninjected or infected tissues were washed and incubated with 1 μM HS-198 for 30 min as control, and injected tissues were not incubated with HS-198. Slides were washed and mounted with DAPI Prolong Gold. Image studies were performed on a Zeiss Axio Imager upright microscope, using 63× oil objective, and visible light for DIC imaging and excitation at 405, 488, or 633 nm for detection of DAPI, FITC, or HS-198, respectively. Images were analyzed using FIJI software.\nSeven C3H/HeN (Charles River Laboratories) female mice, 36 to 42 days old, were anesthetized with isoflurane gas, 1.5 to 2%. Mice were infected with 500,000 logarithmic-stage B. burgdorferi strain N40 spirochetes in <0.5 ml sterile saline by subcutaneous injection in the nape of the neck via 25-gauge needle. The N40 strain was selected for its infection kinetics and inflammatory pathology. The strain was obtained from an archival stock acquired by the Philip lab and was maintained exactly like strain B31 ([21]). […]"}},
  "data": [
    {"smiles": "Cc1nn(-c2ccc(C(=O)N(C)C)c(NCCCOCCOCCOCCOCCOCCCNCc3ccc(C(=C\\C=C4/N(CCCCS(=O)(=O)O)c5ccccc5C4(C)C)/C=C/C4=[N+](CCCCS(=O)(=O)[O-])c5ccccc5C4(C)C)cc3)c2)c2c1C(=O)CC(C)(C)C2", "note": "[HS-198]", "values": [
      {"measurement": "Kd", "setting": "B. burgdorferi HtpG", "result": "5.6 ± 3", "unit": "µM"},
      {"measurement": "Elution of B. burgdorferi GFP-HtpG from ATP Sepharose beads", "setting": "B. burgdorferi HtpG; in words", "result": "selectively eluted the bound fusion protein"},
      {"measurement": "Uptake, share of B. burgdorferi spirochetes", "setting": "B. burgdorferi [1]; 10 μM, incubated 1 h", "result": "> 90", "unit": "%"},
      {"measurement": "Accumulation in B. burgdorferi morphological states", "setting": "B. burgdorferi [1]; 10 μM, spirochetes, blebs, aggregates, colocalization with DAPI", "result": "accumulates in B. burgdorferi in all of its morphological states"},
      {"measurement": "Effect on B. burgdorferi morphology or motility", "setting": "B. burgdorferi [1]; overnight incubation, live B. burgdorferi", "result": "does not appear to affect"},
      {"measurement": "Detection of B. burgdorferi in tissue sections of infected mice", "setting": "B. burgdorferi [2]", "result": "localization to sites of B. burgdorferi infection in mice"}
    ]}
  ]
}
